What was measured:
[1] = target: Serine/threonine-protein kinase PLK4 (Homo sapiens) (UniProt O00444); conditions: Compound concentration 1000.0 nM
[2] = target: Serine/threonine-protein kinase PLK1 (Homo sapiens) (UniProt P53350); conditions: Compound concentration 1000.0 nM
[3] = target: cAMP-dependent protein kinase catalytic subunit beta (Homo sapiens) (UniProt P22694); conditions: Compound concentration 1000.0 nM
[4] = target: Cyclin-dependent kinase-like 3 (Homo sapiens) (UniProt Q8IVW4); conditions: Compound concentration 1000.0 nM
[5] = target: Cyclin-dependent kinase-like 2 (Homo sapiens) (UniProt Q92772); conditions: Compound concentration 1000.0 nM
[6] = target: Ankyrin repeat and protein kinase domain-containing protein 1 (Homo sapiens) (UniProt Q8NFD2); conditions: Compound concentration 1000.0 nM
[7] = target: Serine/threonine-protein kinase pim-2 (Homo sapiens) (UniProt Q9P1W9); conditions: Compound concentration 1000.0 nM
[8] = target: Tyrosine-protein kinase Fyn (Homo sapiens) (UniProt P06241); conditions: Compound concentration 1000.0 nM
[9] = target: cAMP-dependent protein kinase catalytic subunit PRKX (Homo sapiens) (UniProt P51817); conditions: Compound concentration 1000.0 nM
Sequence of cAMP-dependent protein kinase catalytic subunit PRKX (Homo sapiens) (P51817 whole entry): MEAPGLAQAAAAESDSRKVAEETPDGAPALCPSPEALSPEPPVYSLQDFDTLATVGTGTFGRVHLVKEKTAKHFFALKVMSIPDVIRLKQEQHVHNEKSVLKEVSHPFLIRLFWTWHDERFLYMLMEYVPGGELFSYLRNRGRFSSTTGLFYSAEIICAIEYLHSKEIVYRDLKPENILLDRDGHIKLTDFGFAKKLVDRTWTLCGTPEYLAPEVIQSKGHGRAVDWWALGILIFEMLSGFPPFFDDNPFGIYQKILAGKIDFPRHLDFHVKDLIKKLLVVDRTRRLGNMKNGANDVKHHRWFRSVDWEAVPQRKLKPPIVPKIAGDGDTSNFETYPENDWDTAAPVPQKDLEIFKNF

[10] = target: STE20/SPS1-related proline-alanine-rich protein kinase (Homo sapiens) (UniProt Q9UEW8); conditions: Compound concentration 1000.0 nM
[11] = target: TGF-beta receptor type-1 (Homo sapiens) (UniProt P36897); conditions: Compound concentration 1000.0 nM
Sequence of TGF-beta receptor type-1 (Homo sapiens) (P36897 whole entry): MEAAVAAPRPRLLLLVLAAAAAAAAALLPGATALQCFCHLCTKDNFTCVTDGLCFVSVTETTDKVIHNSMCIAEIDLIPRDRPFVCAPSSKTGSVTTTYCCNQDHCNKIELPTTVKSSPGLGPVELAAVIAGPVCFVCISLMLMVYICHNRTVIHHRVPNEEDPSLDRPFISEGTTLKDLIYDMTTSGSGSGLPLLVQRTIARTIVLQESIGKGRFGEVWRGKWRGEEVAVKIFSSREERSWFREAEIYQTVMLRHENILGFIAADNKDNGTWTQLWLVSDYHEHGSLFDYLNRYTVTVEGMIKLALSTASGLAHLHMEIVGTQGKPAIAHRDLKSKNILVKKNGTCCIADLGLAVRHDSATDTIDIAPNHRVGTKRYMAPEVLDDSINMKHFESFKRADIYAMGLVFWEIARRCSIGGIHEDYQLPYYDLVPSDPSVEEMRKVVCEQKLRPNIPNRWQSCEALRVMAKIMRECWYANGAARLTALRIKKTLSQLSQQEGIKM

[12] = target: Death-associated protein kinase 1 (Homo sapiens) (UniProt P53355); conditions: Compound concentration 1000.0 nM
[13] = tested on: Epidermal growth factor receptor (Homo sapiens), P00533 [UNDEFINED MUTATION]; conditions: Compound concentration 1000.0 nM
Sequence of Epidermal growth factor receptor (Homo sapiens), P00533 [UNDEFINED MUTATION] (P00533 whole entry, looked up, stated change not applied): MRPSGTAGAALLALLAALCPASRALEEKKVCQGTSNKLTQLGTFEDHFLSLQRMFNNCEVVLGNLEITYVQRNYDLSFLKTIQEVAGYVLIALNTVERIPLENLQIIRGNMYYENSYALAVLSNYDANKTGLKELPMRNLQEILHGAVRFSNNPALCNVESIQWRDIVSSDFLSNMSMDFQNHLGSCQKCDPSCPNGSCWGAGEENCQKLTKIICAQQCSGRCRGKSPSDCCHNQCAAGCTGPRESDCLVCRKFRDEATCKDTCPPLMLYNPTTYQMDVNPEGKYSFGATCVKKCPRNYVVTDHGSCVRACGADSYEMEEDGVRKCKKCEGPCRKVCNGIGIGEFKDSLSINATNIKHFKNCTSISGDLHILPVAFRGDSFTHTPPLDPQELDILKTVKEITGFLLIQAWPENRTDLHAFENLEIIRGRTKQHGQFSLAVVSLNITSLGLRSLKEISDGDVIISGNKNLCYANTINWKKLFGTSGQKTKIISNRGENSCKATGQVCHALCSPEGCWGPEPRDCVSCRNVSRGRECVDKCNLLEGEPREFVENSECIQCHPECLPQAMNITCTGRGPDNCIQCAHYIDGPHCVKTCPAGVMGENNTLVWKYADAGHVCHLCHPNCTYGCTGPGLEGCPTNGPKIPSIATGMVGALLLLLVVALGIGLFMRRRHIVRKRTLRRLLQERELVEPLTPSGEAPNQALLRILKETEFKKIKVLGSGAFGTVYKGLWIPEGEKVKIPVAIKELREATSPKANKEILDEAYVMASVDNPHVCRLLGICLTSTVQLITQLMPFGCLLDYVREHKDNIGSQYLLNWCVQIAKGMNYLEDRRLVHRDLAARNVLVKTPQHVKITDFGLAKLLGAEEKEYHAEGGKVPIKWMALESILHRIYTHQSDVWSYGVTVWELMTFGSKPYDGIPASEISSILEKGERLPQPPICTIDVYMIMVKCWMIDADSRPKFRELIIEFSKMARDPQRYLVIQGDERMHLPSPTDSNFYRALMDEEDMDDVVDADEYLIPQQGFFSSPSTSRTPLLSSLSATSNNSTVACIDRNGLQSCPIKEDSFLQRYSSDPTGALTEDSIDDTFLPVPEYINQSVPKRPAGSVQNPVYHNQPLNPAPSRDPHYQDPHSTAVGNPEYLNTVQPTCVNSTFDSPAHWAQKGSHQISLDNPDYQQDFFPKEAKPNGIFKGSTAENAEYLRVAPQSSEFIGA

[14] = target: Serine/threonine-protein kinase B-raf (Homo sapiens) (UniProt P15056); conditions: Compound concentration 1000.0 nM
[15] = target: Serine/threonine-protein kinase DCLK3 (Homo sapiens) (UniProt Q9C098); conditions: Compound concentration 1000.0 nM
[16] = target: TRAF2 and NCK-interacting protein kinase (Homo sapiens) (UniProt Q9UKE5); conditions: Compound concentration 1000.0 nM
[17] = target: Leukocyte tyrosine kinase receptor (Homo sapiens) (UniProt P29376); conditions: Compound concentration 1000.0 nM
[18] = target: Serine/threonine-protein kinase Nek5 (Homo sapiens) (UniProt Q6P3R8); conditions: Compound concentration 1000.0 nM
Sequence of Serine/threonine-protein kinase Nek5 (Homo sapiens) (Q6P3R8 whole entry): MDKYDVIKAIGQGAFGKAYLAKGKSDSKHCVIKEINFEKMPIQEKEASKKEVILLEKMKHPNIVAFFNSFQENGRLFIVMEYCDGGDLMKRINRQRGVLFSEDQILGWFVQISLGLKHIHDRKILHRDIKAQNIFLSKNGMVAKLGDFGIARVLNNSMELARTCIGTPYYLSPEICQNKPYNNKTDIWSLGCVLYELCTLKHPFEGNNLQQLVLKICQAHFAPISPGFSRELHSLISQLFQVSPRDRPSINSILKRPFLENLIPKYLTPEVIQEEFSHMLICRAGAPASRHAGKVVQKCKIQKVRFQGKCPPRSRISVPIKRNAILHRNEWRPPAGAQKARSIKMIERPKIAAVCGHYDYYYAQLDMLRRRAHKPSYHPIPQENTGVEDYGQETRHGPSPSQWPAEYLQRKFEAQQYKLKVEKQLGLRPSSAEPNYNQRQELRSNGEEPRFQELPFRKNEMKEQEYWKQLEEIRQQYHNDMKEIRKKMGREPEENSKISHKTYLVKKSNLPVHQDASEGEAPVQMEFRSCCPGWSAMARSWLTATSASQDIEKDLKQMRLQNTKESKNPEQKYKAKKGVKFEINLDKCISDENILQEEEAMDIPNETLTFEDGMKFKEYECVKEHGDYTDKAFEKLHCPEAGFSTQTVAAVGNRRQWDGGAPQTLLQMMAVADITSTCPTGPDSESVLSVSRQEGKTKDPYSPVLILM

[19] = tested on: Epidermal growth factor receptor (Homo sapiens), P00533 [UNDEFINED MUTATION]; conditions: Compound concentration 1000.0 nM; remark: listed apart in the source
[20] = tested on: Tyrosine-protein kinase ABL1 (Homo sapiens), P00519 [F317I]; conditions: Compound concentration 1000.0 nM
[21] = target: Beta-3 adrenergic receptor (Homo sapiens) (UniProt P13945); conditions: Compound concentration 10.0 uM
[22] = target: 5-hydroxytryptamine receptor 2B (Homo sapiens, UniProt P41595); test: GPCRScan assay: inhibition of 5-HT2B; set-up: radioligand conc. used [nm] 1.0 – 2.0, parental cells stable HEK
[23] = tested on: Tyrosine-protein kinase ABL1 (Homo sapiens), P00519 [Y253F]; conditions: Compound concentration 1000.0 nM
[24] = target: Serine/threonine-protein kinase/endoribonuclease IRE1 (Homo sapiens) (UniProt O75460); conditions: Compound concentration 1000.0 nM
[25] = tested on: Hepatocyte growth factor receptor (Homo sapiens), P08581 [Y1235D]; conditions: Compound concentration 1000.0 nM
[26] = tested on: Receptor-type tyrosine-protein kinase FLT3 (Homo sapiens), P36888 [UNDEFINED MUTATION]; conditions: Compound concentration 1000.0 nM
Sequence of Receptor-type tyrosine-protein kinase FLT3 (Homo sapiens), P36888 [UNDEFINED MUTATION] (P36888 whole entry, looked up, change not shown): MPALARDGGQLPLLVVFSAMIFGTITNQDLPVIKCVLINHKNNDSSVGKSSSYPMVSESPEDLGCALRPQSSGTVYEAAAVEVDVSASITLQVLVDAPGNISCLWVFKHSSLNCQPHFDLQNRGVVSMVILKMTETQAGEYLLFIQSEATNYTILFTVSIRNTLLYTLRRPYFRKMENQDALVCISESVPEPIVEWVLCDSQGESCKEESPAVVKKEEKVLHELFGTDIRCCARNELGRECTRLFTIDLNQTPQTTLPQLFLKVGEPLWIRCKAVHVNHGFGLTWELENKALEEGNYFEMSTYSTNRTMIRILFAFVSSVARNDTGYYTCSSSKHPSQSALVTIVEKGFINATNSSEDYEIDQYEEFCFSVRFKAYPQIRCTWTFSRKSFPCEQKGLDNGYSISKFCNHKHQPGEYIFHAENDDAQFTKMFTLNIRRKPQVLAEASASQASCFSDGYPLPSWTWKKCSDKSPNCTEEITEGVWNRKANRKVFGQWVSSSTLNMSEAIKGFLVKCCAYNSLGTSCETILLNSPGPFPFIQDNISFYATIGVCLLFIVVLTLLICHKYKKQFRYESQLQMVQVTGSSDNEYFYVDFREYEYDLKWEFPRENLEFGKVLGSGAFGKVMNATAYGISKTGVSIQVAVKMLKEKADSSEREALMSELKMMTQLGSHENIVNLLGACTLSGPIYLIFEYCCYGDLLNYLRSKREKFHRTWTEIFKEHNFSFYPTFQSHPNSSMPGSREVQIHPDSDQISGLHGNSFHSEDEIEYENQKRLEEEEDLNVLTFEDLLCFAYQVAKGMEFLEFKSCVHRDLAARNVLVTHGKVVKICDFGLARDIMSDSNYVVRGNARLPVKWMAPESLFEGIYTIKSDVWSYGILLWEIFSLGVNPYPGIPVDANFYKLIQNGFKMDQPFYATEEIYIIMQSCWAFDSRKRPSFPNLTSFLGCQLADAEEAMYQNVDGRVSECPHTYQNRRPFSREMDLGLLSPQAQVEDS

[27] = target: Mitogen-activated protein kinase kinase kinase 7 (Homo sapiens) (UniProt O43318); conditions: Compound concentration 1000.0 nM
[28] = target: Serine/threonine-protein kinase N1 (Homo sapiens) (UniProt Q16512); conditions: Compound concentration 1000.0 nM
[29] = target: Casein kinase I isoform gamma-2 (Homo sapiens) (UniProt P78368); conditions: Compound concentration 1000.0 nM
[30] = target: Fibroblast growth factor receptor 2 (Homo sapiens) (UniProt P21802); conditions: Compound concentration 1000.0 nM
[31] = target: Fibroblast growth factor receptor 1 (Homo sapiens) (UniProt P11362); conditions: Compound concentration 1000.0 nM
[32] = target: 1-phosphatidylinositol 3-phosphate 5-kinase (Homo sapiens) (UniProt Q9Y2I7); conditions: Compound concentration 1000.0 nM
[33] = target: Ephrin type-B receptor 6 (Homo sapiens) (UniProt O15197); conditions: Compound concentration 1000.0 nM
[34] = target: Aurora kinase B (Homo sapiens) (UniProt Q96GD4); conditions: Compound concentration 1000.0 nM
[35] = target: Ephrin type-A receptor 8 (Homo sapiens) (UniProt P29322); conditions: Compound concentration 1000.0 nM
Sequence of Ephrin type-A receptor 8 (Homo sapiens) (P29322 whole entry): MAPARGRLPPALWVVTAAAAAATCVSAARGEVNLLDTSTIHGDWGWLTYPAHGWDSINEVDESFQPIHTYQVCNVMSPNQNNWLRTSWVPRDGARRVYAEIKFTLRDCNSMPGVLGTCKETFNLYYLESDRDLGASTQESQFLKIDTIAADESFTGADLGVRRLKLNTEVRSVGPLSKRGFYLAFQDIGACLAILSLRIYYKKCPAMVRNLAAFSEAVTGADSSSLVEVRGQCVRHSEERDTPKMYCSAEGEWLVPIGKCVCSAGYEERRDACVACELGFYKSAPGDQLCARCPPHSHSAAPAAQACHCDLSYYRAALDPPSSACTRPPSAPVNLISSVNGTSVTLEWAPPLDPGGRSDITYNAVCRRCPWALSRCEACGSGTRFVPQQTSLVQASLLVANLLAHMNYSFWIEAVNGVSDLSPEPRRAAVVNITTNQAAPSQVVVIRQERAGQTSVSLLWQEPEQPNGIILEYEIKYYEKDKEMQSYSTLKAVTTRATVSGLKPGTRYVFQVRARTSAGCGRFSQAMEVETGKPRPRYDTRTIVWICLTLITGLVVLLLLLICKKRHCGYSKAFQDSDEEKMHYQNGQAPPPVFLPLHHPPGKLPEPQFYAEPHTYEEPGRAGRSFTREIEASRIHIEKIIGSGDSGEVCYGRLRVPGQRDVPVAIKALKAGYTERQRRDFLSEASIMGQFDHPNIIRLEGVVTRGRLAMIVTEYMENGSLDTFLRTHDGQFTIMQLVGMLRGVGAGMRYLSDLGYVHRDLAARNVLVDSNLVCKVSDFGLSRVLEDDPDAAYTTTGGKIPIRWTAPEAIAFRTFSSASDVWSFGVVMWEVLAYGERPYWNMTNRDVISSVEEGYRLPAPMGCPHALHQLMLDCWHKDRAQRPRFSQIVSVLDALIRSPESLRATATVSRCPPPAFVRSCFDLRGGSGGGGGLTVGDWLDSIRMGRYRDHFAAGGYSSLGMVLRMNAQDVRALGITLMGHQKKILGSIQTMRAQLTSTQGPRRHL

[36] = target: Tyrosine-protein kinase receptor TYRO3 (Homo sapiens) (UniProt Q06418); conditions: Compound concentration 1000.0 nM
[37] = target: Cyclin-dependent kinase 2 (Homo sapiens) (UniProt P24941); conditions: Compound concentration 1000.0 nM
[38] = tested on: Receptor-type tyrosine-protein kinase FLT3 (Homo sapiens), P36888 [UNDEFINED MUTATION]; conditions: Compound concentration 1000.0 nM; remark: listed apart in the source
[39] = target: Serine/threonine-protein kinase DCLK2 (Homo sapiens) (UniProt Q8N568); conditions: Compound concentration 1000.0 nM
[40] = target: Kappa-type opioid receptor (Homo sapiens) (UniProt P41145); conditions: Compound concentration 10.0 uM
[41] = target: G protein-coupled receptor kinase 3 (Homo sapiens) (UniProt P35626); conditions: Compound concentration 1000.0 nM

CC(C)(O)c1cncc(-c2nc3ccc(F)cc3n2C2CC2)c1 [MSD-CYP11B2]
1.54 µM: Ki [22]
inactive: residual activity [1] 79% | residual activity [2] 100% | residual activity [3] 77% | residual activity [4] 84% | residual activity [5] 97% | residual activity [6] 100% | residual activity [7] 100% | residual activity [8] 100% | residual activity [9] 100% | residual activity [10] 100% | residual activity [11] 90% | residual activity [12] 100% | residual activity [13] 100% | residual activity [14] 100% | residual activity [15] 100% | residual activity [16] 100% | residual activity [17] 100% | residual activity [18] 100% | residual activity [19] 100% | residual activity [20] 100% | inhibition [21] 16.7% | residual activity [23] 100% | residual activity [24] 100% | residual activity [25] 100% | residual activity [26] 100% | residual activity [27] 100% | residual activity [28] 100% | residual activity [29] 100% | residual activity [30] 100% | residual activity [31] 100% | residual activity [32] 99% | residual activity [33] 100% | residual activity [34] 100% | residual activity [35] 100% | residual activity [36] 100% | residual activity [37] 100% | residual activity [38] 83% | residual activity [39] 100% | inhibition [40] -8.65% | residual activity [41] 79%

FC(F)(F)c1ccc2c(c1)nc(-c1cccnc1)n2C1CC1 [MSD-CYP11B2-Negative-control]
1.07 µM: Ki [22]
inactive: residual activity [1] 78% | residual activity [2] 96% | residual activity [3] 100% | residual activity [4] 96% | residual activity [5] 100% | residual activity [6] 100% | residual activity [7] 100% | residual activity [8] 100% | residual activity [9] 100% | residual activity [10] 100% | residual activity [11] 78% | residual activity [12] 100% | residual activity [13] 100% | residual activity [14] 100% | residual activity [15] 100% | residual activity [16] 100% | residual activity [17] 100% | residual activity [18] 100% | residual activity [19] 100% | residual activity [20] 100% | inhibition [21] -1.88% | residual activity [23] 100% | residual activity [24] 100% | residual activity [25] 100% | residual activity [26] 100% | residual activity [27] 100% | residual activity [28] 100% | residual activity [29] 100% | residual activity [30] 100% | residual activity [31] 100% | residual activity [32] 99% | residual activity [33] 100% | residual activity [34] 100% | residual activity [35] 100% | residual activity [36] 100% | residual activity [37] 100% | residual activity [38] 92% | residual activity [39] 100% | inhibition [40] -1.84% | residual activity [41] 76%

Reference: ChEMBL document CHEMBL4507294, “Data for DCP probe MSD-CYP11B2” (2021)
